Laboratory results as given in patent publication US20170312260A1 (LAUNX BIOMEDICAL CO., LTD., priority 2014, published 2017).
Where two headings read alike, the source gives them in different places.

Columns and labels:
Assay type in all cases: cell-based
[1] = test system: pancreatic cancer cell line AsPC-1; assay: WST-1 cell viability analysis, AsPC-1; conditions: Homo sapiens
Protocol: (§1) The cell numbers were counted and reseed as 2×10^6 in cell culture plate/flask. Then, the culture medium were added to a volume of 10 ml, and the cells were cultured for 2-3 days. Then, the cells were suspended for loading into 96-well plates. The number of cells was 3000 and the volume of the culture medium was 100 μl each well.
(§2) Removing the original culture medium from 96-well plate. Then add 100 μl of commercially drug at a concentration of 10 μM per well. After 72 hours, add the diluted WST-1 reagent to the well with 100 μl/well, and the diluted WST-1 reagent was acquired from the dilution of 9:1 medium and WST-1 stock reagent. Finally, the total volume of each well was 200 μl/well. Culture the 96-well plate at 37° C. for 30 to 90 minutes. Detecting and calculate the survival rate of each cancer cells with an ELISA reader at OD450 nm.

bladder cancer cells = assay: Summary of cell viability, bladder cancer; conditions: 72 hours, summary over the bladder cancer cell lines, read-out: Inhibitory effect, bladder cancer
Protocol: as §1, §2
As a result in the experiments of the present invention.

[2] = test system: MKN-45 (Gastric Adenocarcinoma); assay: WST-1 cell viability analysis, MKN-45; conditions: Homo sapiens, MKN-45, 10 μM, 72 hours, read-out: viability (survival rate) of MKN-45 cells
Protocol: as §1, §2

[3] = test system: breast cancer cell line MCF7; assay: WST-1 cell viability analysis, MCF7; conditions: Homo sapiens, MCF7, 10 μM, 72 hours, read-out: viability (survival rate) of MCF7 cells
Protocol: as §1, §2

normal cells = assay: Toxicity to normal cells (overall statement)
Source text: Subculture the different types of cancer cell lines. The cancer cells includes lung cancer, gastric cancer, hepatic cancer, colon cancer, skin cancer, cervical cancer, prostate cancer, bladder cancer, breast cancer, leukemia, pancreatic cancer, ovarian cancer, tongue cancer, osteosarcoma, and renal cancer. The normal cells used in the control group included kidney cell (HEK293) and human bronchial epithelial cell line BEAS-2B (as shown in Table 1).
as §2

[4] = test system: osteosarcoma cell line U2OS; assay: WST-1 cell viability analysis, U2OS; conditions: Homo sapiens
Protocol: as §1, §2

[5] = test system: A375 (amelanotic melanoma); assay: WST-1 cell viability analysis, A375; conditions: Homo sapiens, A-375, 10 μM, 72 hours, read-out: viability (survival rate) of A375 cells
[6] = test system: AGS (Gastric Adenocarcinoma); assay: WST-1 cell viability analysis, AGS; conditions: Homo sapiens
Protocol: as §1, §2

[7] = test system: breast cancer cell line MDA-MB-231; assay: WST-1 cell viability analysis, MDA-MB-231; conditions: Homo sapiens
[8] = test system: Hep3B (hepatocellular carcinoma); assay: WST-1 cell viability analysis, Hep3B; conditions: Homo sapiens
Protocol: as §1, §2

Compound: CC1=C(C(=O)OC(C)C)C(c2cccc([N+](=O)[O-])c2)C(C(=O)OC2CN(C(c3ccccc3)c3ccccc3)C2)=C(N)N1 (stereo not drawn) [Azelnidipine]
- viability at 10 µM ([1]; ASPC1, 10 μM, 72 hours, run 1-4-30 min, read-out: viability (survival rate) of AsPC-1 cells): 58.6%
- viability at 10 µM ([1]; ASPC1, 10 μM, 72 hours, run 1-7-3-30 min, read-out: viability (survival rate) of AsPC-1 cells): 104%
- viability at 10 µM ([1]; ASPC1, 10 μM, 72 hours, run 1-7-4-30 min, read-out: viability (survival rate) of AsPC-1 cells): 46.1%
- viability at 10 µM ([1]; ASPC1, 10 μM, 72 hours, run 1-7-7-30 min, read-out: viability (survival rate) of AsPC-1 cells): 13.7%
- viability at 10 µM ([1]; ASPC1, 72 h, 10 μM, average of 4 tests, read-out: Average viability of AsPC-1 cells): 55.6%
- viability at 10 µM (bladder cancer cells): 97.3%
- viability at 10 µM ([2]; run 0510-10 min): 174%
- viability at 10 µM ([2]; run 0512-10 min): 184%
- viability at 10 µM ([2]; run 0515-10 min): 68.5%
- viability at 10 µM ([2]; run 0517-10 min): 130%
- viability at 10 µM ([3]; run 0612-10 min): 48.6%
- viability at 10 µM ([3]; run 0614-10 min): 46.6%
- viability at 10 µM ([3]; run 0616-10 min): 68.2%
- viability at 10 µM ([3]; run 0619-10 min): 79.9%
- toxicity to normal cells (in words) (normal cells): no toxicity or had little toxicity
- viability at 10 µM ([4]; 72 h, summary (U2OS), read-out: Inhibitory effect, osteosarcoma): 69.4%
- viability at 10 µM ([4]; 72 hours, run 6-26-10 min, read-out: viability (survival rate) of U2OS cells): 53.3%
- viability at 10 µM ([4]; 72 hours, run 6-28-10 min, read-out: viability (survival rate) of U2OS cells): 78.3%
- viability at 10 µM ([4]; 72 hours, run 6-30-10 min, read-out: viability (survival rate) of U2OS cells): 84.8%
- viability at 10 µM ([4]; 72 hours, run 7-3-10 min, read-out: viability (survival rate) of U2OS cells): 61.2%
- viability at 10 µM ([5]; run 0602-30 min): 124%
- viability at 10 µM ([5]; run 0607-10 min): 76%
- viability at 10 µM ([5]; run 0609-10 min): 105%
- viability at 10 µM ([6]; 72 h, average of 4 tests, read-out: average viability of AGS cells): 90.2%
- viability at 10 µM ([6]; 72 hours, run 0510-10 min, read-out: viability (survival rate) of AGS cells): 120%
- viability at 10 µM ([6]; 72 hours, run 0512-10 min, read-out: viability (survival rate) of AGS cells): 124%
- viability at 10 µM ([6]; 72 hours, run 0515-10 min, read-out: viability (survival rate) of AGS cells): 42.1%
- viability at 10 µM ([6]; 72 hours, run 0517-10 min, read-out: viability (survival rate) of AGS cells): 74.3%
- viability at 10 µM ([7]; MDA-MB-231, 10 μM, 72 hours, run 0612-10 min, read-out: viability (survival rate) of MDA-MB-231 cells): 70.3%
- viability at 10 µM ([7]; MDA-MB-231, 10 μM, 72 hours, run 0614-10 min, read-out: viability (survival rate) of MDA-MB-231 cells): 89.7%
- viability at 10 µM ([7]; MDA-MB-231, 72 h, 10 μM, average of the 3 printed tests, read-out: average viability of MDA-MB-231 cells): 86.9%
- viability at 10 µM ([8]; 72 h, average of 4 tests, read-out: Average viability of Hep3B cells): 98.6%
- viability at 10 µM ([8]; 72 hours, run 0612-20 min, read-out: viability (survival rate) of Hep3B cells): 114%
- viability at 10 µM ([8]; 72 hours, run 0614-20 min, read-out: viability (survival rate) of Hep3B cells): 91.5%
- viability at 10 µM ([8]; 72 hours, run 0616-20 min, read-out: viability (survival rate) of Hep3B cells): 97.9%
- viability at 10 µM ([8]; 72 hours, run 0619-20 min, read-out: viability (survival rate) of Hep3B cells): 90.7%
